# Test results as given in patent US12109315B2, “Method for treating Blastocystis infection” (Imam Abdulrahman Bin Faisal University, priority 2022, dated 2024).
# Where two headings read alike, the source gives them in different places.
# How the values were obtained:
# [1] = Drug release study (dialysis membrane, PBS, UV-visible spectroscopy); assay type: physicochemical; settings: within 12 h, absence of nanocarrier, PBS pH 5.6, 37° C.
# Protocol: Prior to the study, the dialysis membrane (12 KDa, Sigma Aldrich) was activated and then 15 mg of nanoformulation was dispersed in 25 ml of PBS solution (pH 5.6 and 7.4). The release of antioxidants are studied at 37° C. At regular time interval, 5 ml of solution was withdrawn, and release of antioxidants were measured using UV-visible spectroscopy. The withdrawn solution (5 ml) was replaced with equal volume of fresh PBS solution.
# Various concentration of aliquots 5, 10, 15, 20, 25 and 30 μg/ml was prepared with makeup volume to 10 ml using release medium PBS solution (pH=5.6 or 7.4) and calibration curve established against blank at maximum absorption wavelength λmax of 428 nm and 307 nm, respectively. […] The release study was repeated in triplicates.
# [2] = tested on: Blastocystis cysts; experiment: organism not typed; assay type: cell-based; settings: read-out: Reduction in the percentage of viability of Blastocystis cysts
# Excerpt: Suspensions of cultured Blastocystis from symptomatic patients were used for evaluating biological activities of the formulated nanocomposites. Blastocystis were obtained from the El-Badry Lab where ethically approved by the Deanship of Scientific Research and Postgraduate Studies of Imam Abdulrahman Bin Faisal University under the Institutional Review Board (IRB) number (IRB #2021-01-009).
# Blastocystis were sub-cultured using fresh Jones' medium enriched with 10% horse serum according to Jones to get rid of stool debris [Jones, W. Ann Trop Med Parasitol., 1946, 40, 130-140; & Zman, V., and Khan, K. Southt Asian J Trop Med Public Health, 1994, 25, 792-793, each of which is incorporated herein by reference in its entirety]. Cultures with vacuolar forms of Blastocystis greater than 10^6 were used for evaluating biological activities of the formulated nanocomposites.
# Suspension of cultured Blastocytis cysts, in logarithmic growth phase of 10^6/ml, were inoculated in sets of culture tubes with Jones' culture media. Haemocytometer counting chamber was used to count the number of Blastocystis cysts. The experiments contained 3 groups as follows:
# Group 1 (G1): parasite (negative, not treated) control group, containing only cultured cysts of Blastocystis.
# Group 2 (G2): drug (positive) control, containing cultured parasites exposed to 500 μg/ml metronidazole as reference anti-Blastocystis therapy.
# Group 3 (G3): nanocomposites tested group, containing cultured parasites exposed to the three nanocomposites. G3 was further divided into subgroups to test three nanocomposites (G3A, G3B and […]) at different concentrations (G3i-iv). Parasites were exposed to increasing concentrations of the three nanocomposites of 100 μg/ml (G3i) 200 μg/ml (G3ii), 500 μg/ml (G3iii) and 800 μg/ml (G3iv) (W/V). All tubes were incubated at 37° C. in humidified CO2 for 48 hours.
# All tested nanocomposites for each concentration were prepared by diluting stock solution in appropriate amount of PBS. The volume of each of the experiment tubes was brought to 1 ml with Blastocystis 10^6/ml concentration. All experiments were performed in triplicate [El-Sayed, S. H., et. al., Res J Parasitol., 2017, 12,2, 33-44; Méabed, E. M. H., Phytomedicine, 2018, 1, 43, 158-163; & Mokhtar, A. B., et. al., Int J Environ Res Public Health, 2019, 16, 1555, each of which is incorporated herein by reference in its entirety].
# The number of Blastocystis cysts from all cultured tubes included in the experiment were counted under the microscope in haemocytometer counting chamber, and cultured Blastocystis cysts were tested for their viability using Trypan blue solution (0.4%). […] The dead Blastocystis cysts were further confirmed by microscopic detection of cell wall disruption and destruction of internal structures. All cultured tubes were examined for percentage of reduction in growth of Blastocystis cysts each hour for 5 hours then after 24 hours. The minimal lethal concentration (MLC) was determined to be the concentration at which no Blastocystis cysts were observed.
maximum release of resveratrol (burst release) [1],SMILES,inhibition at 500 µg/mL ([2]; 1 h),inhibition at 500 µg/mL ([2]; 2 h),inhibition at 500 µg/mL ([2]; 3 h),inhibition at 500 µg/mL ([2]; 4 h),inhibition at 500 µg/mL ([2]; 5 h),inhibition at 500 µg/mL ([2]; 24 h)
43%,"Oc1ccc(/C=C/c2cc(O)cc(O)c2)cc1 [resveratrol, Resveratrol]",–,–,–,–,–,–
–,"Cc1ncc([N+](=O)[O-])n1CCO [Metronidazole, metronidazole]",81.7%,87.7%,91.3%,96.3%,98.7%,99.3%
